Patent US20120065187A1 (ALCON RESEARCH, LTD, priority 2008, published 2012)
Where a name gives a salt, the structure may show the parent alone.

Key:
[1] = biological target: T1, human H4 (Homo sapiens, UniProt Q9H3N8); assay: In vitro histamine receptor cell-based assay (aequorin bioluminescence), H4 antagonism; conditions: CHO-K1 cells expressing human H4, aequorin and Gα16; histamine at EC80; read-out: H4 Antagonist EC50
T1 construct: host or cells: CHO-K1
In short: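 CHO-K1 cells stably expressing human H4, Gα16 and mitochondrial aequorin, loaded with 5 μM coelenterazine-h, preincubated 15 min at room temperature with compound, then challenged with histamine at EC80.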

[2] = biological target: T2, human H1 (Homo sapiens, UniProt P35367); assay: In vitro histamine receptor cell-based assay (aequorin bioluminescence), H1 antagonism; conditions: CHO-K1 cells expressing human H1 and aequorin; histamine at EC80; read-out: H1 Antagonist EC50
T2 construct: host or cells: CHO-K1
T2 sequence (P35367 whole entry): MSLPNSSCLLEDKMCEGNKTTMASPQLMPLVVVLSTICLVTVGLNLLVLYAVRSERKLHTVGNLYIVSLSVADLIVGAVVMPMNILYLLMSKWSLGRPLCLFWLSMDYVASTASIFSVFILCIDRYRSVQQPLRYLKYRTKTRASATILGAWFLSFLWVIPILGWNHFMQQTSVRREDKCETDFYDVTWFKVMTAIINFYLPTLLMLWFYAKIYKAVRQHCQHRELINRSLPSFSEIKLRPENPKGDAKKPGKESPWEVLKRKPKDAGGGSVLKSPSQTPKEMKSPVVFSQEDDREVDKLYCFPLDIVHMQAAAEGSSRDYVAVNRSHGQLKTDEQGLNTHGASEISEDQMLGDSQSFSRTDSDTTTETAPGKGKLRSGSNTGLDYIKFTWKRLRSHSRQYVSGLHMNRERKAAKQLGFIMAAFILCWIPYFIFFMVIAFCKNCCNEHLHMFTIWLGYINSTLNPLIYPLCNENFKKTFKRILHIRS
In short: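 Stable CHO-K1 lines expressing human H1 or H4 (H4 with Gα16) plus mitochondrial aequorin, loaded 4 h with 5 μM coelenterazine-h at ~21 °C. Compounds preincubated 15 min, then histamine at EC80 added; bioluminescence decrease (AUC or max–min) expressed as % of positive control (diphenhydramine for H1, JNJ7777120 for H4, 10 μM).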

SMILES	EC50 [1]	EC50 [2]
Clc1ccc2nc(OC3CCNCC3)c3nncn3c2c1 [Example 74, 8-chloro-4-(piperidin-4-yloxy)-[1,2,4]triazolo[4,3-a]quinoxaline]	> 10 µM	> 10 µM
Cc1nc2c(N3CCNCC3)nc3cc(F)c(F)cc3c2o1 [Example 146, 7,8-difluoro-2-methyl-4-(piperazin-1-yl)oxazolo[4,5-c]quinoline]	< 10 µM	< 10 µM
Cn1cc2c(n1)c(N1CC[N+](C)(C)CC1)nc1ccc(Cl)cc12 [Example 154, 4-(8-Chloro-2-methyl-2H-pyrazolo[3,4-c]quinolin-4-yl)-1,1-dimethylpiperazin-1-ium]	> 10 µM	> 10 µM
CN1CCN(c2nc3c(F)cc(Cl)cc3n3cnnc23)CC1 [Example 197, 8-chloro-6-fluoro-4-(4-methylpiperazin-1-yl)-[1,2,4]triazolo[4,3-a]quinoxaline]	< 10 µM	> 10 µM
NCCNc1nc2ccc(Cl)cc2n2cnnc12 [Example 70, N^1-(8-chloro-[1,2,4]triazolo[4,3-a]quinoxalin-4-yl)ethane-1,2-diamine]	> 10 µM	> 10 µM
CC(C)c1ccc2nc(N3CCN(C)CC3)c3nncn3c2c1 [Example 173, 8-isopropyl-4-(4-methylpiperazin-1-yl)-[1,2,4]triazolo[4,3-a]quinoxaline]	< 10 µM	> 10 µM
CN(C)CCN(C)c1nc2ccc(Cl)cc2n2cnnc12 [Example 78, N^1-(8-chloro-[1,2,4]triazolo[4,3-a]quinoxalin-4-yl)-N^1,N^2,N^2-trimethylethane-1,2-diamine]	> 10 µM	> 10 µM
CN1CCN(c2nc3ccc(Br)cc3c3conc23)CC1 [Example 222, 8-bromo-4-(4-methylpiperazin-1-yl)isoxazolo[3,4-c]quinoline]	< 10 µM	> 10 µM
CN1CCN(c2nc3ccc(Cl)cc3c3nc(Cc4ccccc4)nn23)CC1 [Example 118, 2-Benzyl-9-chloro-5-(4-methylpiperazin-1-yl)-[1,2,4]triazolo[1,5-c]quinazoline]	> 10 µM	> 10 µM
Cc1nc2c3cc(Br)ccc3nc(N3CCN(C)CC3)n2n1 [Example 135, 9-bromo-2-methyl-5-(4-methylpiperazin-1-yl)-[1,2,4]triazolo[1,5-c]quinazoline]	< 10 µM	< 10 µM
Clc1ccc2nc(N3CC4CC3CN4)c3nncn3c2c1 (centres unmarked) [Example 67, 4-(2,5-diazabicyclo[2.2.1]heptan-2-yl)-8-chloro-[1,2,4]triazolo[4,3-a]quinoxaline]	< 10 µM	> 10 µM
Cc1cn2c(n1)c(N1CCN(C)CC1)nc1ccc(Cl)cc12 [Example 9, 8-Chloro-2-methyl-4-(4-methylpiperazin-1-yl)imidazo[1,2-a]quinoxaline]	< 10 µM	> 10 µM
CN1CCN(c2nc3cc(F)c(Cl)cc3n3nnnc23)CC1 [Example 189, 8-chloro-7-fluoro-4-(4-methylpiperazin-1-yl)tetrazolo[1,5-a]quinoxaline]	< 10 µM	> 10 µM
Clc1ccc2nc(NCCN3CCOCC3)c3nncn3c2c1 [Example 71, 8-chloro-N-(2-morpholinoethyl)-[1,2,4]triazolo[4,3-a]quinoxalin-4-amine]	> 10 µM	> 10 µM
Cc1nc2c3cc(Cl)c(C(F)(F)F)cc3nc(N3CCNCC3)n2n1 [Example 132, 9-chloro-2-methyl-5-(piperazin-1-yl)-8-(trifluoromethyl)-[1,2,4]triazolo[1,5-c]quinazoline hydrochloride]	< 10 µM	> 10 µM
CC(C)c1nnc2c(N3CCN(C)CC3)nc3ccc(Cl)cc3n12 [Example 87, 8-chloro-1-isopropyl-4-(4-methylpiperazin-1-yl)-[1,2,4]triazolo[4,3-a]quinoxaline]	< 10 µM	> 10 µM
CC(C)(C)OC(=O)N1CCN(c2nc3ccc(Cl)cc3n3cnnc23)CC1 [Example 56, tert-butyl 4-(8-chloro-[1,2,4]triazolo[4,3-a]quinoxalin-4-yl)piperazine-1-carboxylate]	> 10 µM	> 10 µM
Cc1nnc2c(N3CCNCC3)nc3ccc(Cl)cc3n12 [Example 85, 8-chloro-1-methyl-4-(piperazin-1-yl)-[1,2,4]triazolo[4,3-a]quinoxaline]	> 10 µM	> 10 µM
CN1CCN(c2nc3ccc(Cl)cc3c3ncnn23)CC1 [Example 111, 9-chloro-5-(4-methylpiperazin-1-yl)-[1,2,4]triazolo[1,5-c]quinazoline]	< 10 µM	> 10 µM
Cc1nc2c3cc(F)c(F)cc3nc(N3CCNCC3)n2n1 [Example 98, 8,9-Difluoro-2-methyl-5-(piperazin-1-yl)-[1,2,4]triazolo[1,5-c]quinazoline]	< 10 µM	> 10 µM
FC(F)(F)c1ccc2c(c1)nc(N1CCNCC1)c1nncn12 [Example 26, 4-(piperazin-1-yl)-7-(trifluoromethyl)-[1,2,4]triazolo[4,3-a]quinoxaline]	> 10 µM	> 10 µM
CN1CCN(c2nc3cc(C(F)(F)F)ccc3n3cnnc23)CC1 [Example 25, 4-(4-methylpiperazin-1-yl)-7-(trifluoromethyl)-[1,2,4]triazolo[4,3-a]quinoxaline]	< 10 µM	> 10 µM
Cc1nc2c(N3CCNCC3)nc3ccc(Cl)cc3c2o1 [Example 144, 8-chloro-2-methyl-4-(piperazin-1-yl)oxazolo[4,5-c]quinoline]	< 10 µM	> 10 µM
Clc1ccc2nc(C3=CCNCC3)c3nncn3c2c1 [Example 1, 8-chloro-4-(1,2,3,6-tetrahydropyridin-4-yl)-[1,2,4]triazolo[4,3-a]quinoxaline]	> 10 µM	> 10 µM
Cc1ccc2nc(N3CCNCC3)c3nncn3c2c1 [Example 22, 8-Methyl-4-(piperazin-1-yl)-[1,2,4]triazolo[4,3-a]quinoxaline]	< 10 µM	> 10 µM

More lines, now with the values ahead:

EC50 [1]	EC50 [2]	SMILES
< 10 µM	> 10 µM	Clc1ccc2nc(N3CCN(C4CC4)CC3)c3nncn3c2c1 [Example 64, 8-chloro-4-(4-cyclopropylpiperazin-1-yl)-[1,2,4]triazolo[4,3-a]quinoxaline]
> 10 µM	> 10 µM	Brc1ccc2c(c1)nc(N1CCNCC1)c1nncn12 [Example 53, 7-bromo-4-(piperazin-1-yl)-[1,2,4]triazolo[4,3-a]quinoxaline]
< 10 µM	> 10 µM	CC1(C)CN(c2nc3ccc(Cl)cc3n3cnnc23)CCN1 [Example 82, 8-chloro-4-(3,3-dimethylpiperazin-1-yl)-[1,2,4]triazolo[4,3-a]quinoxaline]
< 10 µM	> 10 µM	CNC1CCN(c2nc3ccc(Cl)cc3n3cnnc23)C1 (centres unmarked) [Example 60, 1-(8-chloro-[1,2,4]triazolo[4,3-a]quinoxalin-4-yl)-N-methylpyrrolidin-3-amine]
< 10 µM	> 10 µM	COc1ccc2nc(N3CCN(C)CC3)n3nc(C)nc3c2c1 [Example 101, 9-Methoxy-2-methyl-5-(4-methylpiperazin-1-yl)-[1,2,4]triazolo[1,5-c]quinazoline]
< 10 µM	> 10 µM	Clc1cc2nc(N3CCNCC3)c3nncn3c2cc1Cl [Example 168, 7,8-dichloro-4-(piperazin-1-yl)-[1,2,4]triazolo[4,3-a]quinoxaline]
< 10 µM	> 10 µM	CCc1ccc2nc(N3CCNCC3)n3nc(C)nc3c2c1 [Example 140, 9-ethyl-2-methyl-5-(piperazin-1-yl)-[1,2,4]triazolo[1,5-c]quinazoline]
< 10 µM	< 10 µM	Cn1cc2c(n1)c(N1CCNCC1)nc1ccc(C(F)(F)F)cc12 [Example 156, 2-Methyl-4-piperazinyl-8-(trifluoromethyl)pyrazolo[3,4-c]quinoline HCl salt]
< 10 µM	> 10 µM	CN1CCN(c2nc3cc(Br)c(F)cc3n3cnnc23)CC1 [Example 199, 7-bromo-8-fluoro-4-(4-methylpiperazin-1-yl)-[1,2,4]triazolo[4,3-a]quinoxaline]
> 10 µM	> 10 µM	NC1CCN(c2nc3ccc(Cl)cc3n3cnnc23)CC1 [Example 81, 1-(8-chloro-[1,2,4]triazolo[4,3-a]quinoxalin-4-yl)piperidin-4-amine]
< 10 µM	> 10 µM	Cc1nc2c3cc(Cl)c(Cl)cc3nc(N3CCN(C)CC3)n2n1 [Example 93, 8,9-Dichloro-2-methyl-5-(4-methylpiperazin-1-yl)-[1,2,4]triazolo[1,5-c]quinazoline]
> 10 µM	> 10 µM	Cc1nc2c(N3CCNCC3)nc3ccc(Cl)cc3c2[nH]1 [Example 163, 8-Chloro-2-methyl-4-piperazinylimidazo[4,5-c]quinoline]
< 10 µM	> 10 µM	C=Cc1ccc2nc(N3CCNCC3)n3nc(C)nc3c2c1 [Example 138, 2-methyl-5-(piperazin-1-yl)-9-vinyl-[1,2,4]triazolo[1,5-c]quinazoline]
< 10 µM	> 10 µM	CN1CCN(c2nc3ccc(C(F)(F)F)c(F)c3n3cnnc23)CC1 [Example 236, 9-fluoro-4-(4-methylpiperazin-1-yl)-8-(trifluoromethyl)-[1,2,4]triazolo[4,3-a]quinoxaline]
< 10 µM	> 10 µM	CN1CCN(c2nc3cc(Cl)c(C(F)(F)F)cc3n3cnnc23)CC1 [Example 44, 7-Chloro-4-(4-methylpiperazin-1-yl)-8-(trifluoromethyl)-[1,2,4]triazolo[4,3-a]quinoxaline]
